The assay addresses Tie-2 (Homo sapiens, UniProt Q02763). As to the kind of experiment: Tie-2 tyrosine kinase activity: kinase-dependent ATP consumption (pEY substrate, luciferase/luciferin chemiluminescence) or 33P-ATP incorporation into substrate. Format: biochemical. The conditions noted are these: Tie-2 (human enzyme) inhibition, Table 2, class symbols A-D. In outline:
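Values are IC50 categories: A below 50 nM, B above 50 to 1000 nM, C above 1000 to below 10,000 nM, D 10,000 nM or more. They were measured by 33P-ATP phosphate transfer onto a generic substrate bound to the plate (scintillation), or by luminescent luciferase detection of ATP used with pEY.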
Sequence of Tie-2 (Q02763 23-1124): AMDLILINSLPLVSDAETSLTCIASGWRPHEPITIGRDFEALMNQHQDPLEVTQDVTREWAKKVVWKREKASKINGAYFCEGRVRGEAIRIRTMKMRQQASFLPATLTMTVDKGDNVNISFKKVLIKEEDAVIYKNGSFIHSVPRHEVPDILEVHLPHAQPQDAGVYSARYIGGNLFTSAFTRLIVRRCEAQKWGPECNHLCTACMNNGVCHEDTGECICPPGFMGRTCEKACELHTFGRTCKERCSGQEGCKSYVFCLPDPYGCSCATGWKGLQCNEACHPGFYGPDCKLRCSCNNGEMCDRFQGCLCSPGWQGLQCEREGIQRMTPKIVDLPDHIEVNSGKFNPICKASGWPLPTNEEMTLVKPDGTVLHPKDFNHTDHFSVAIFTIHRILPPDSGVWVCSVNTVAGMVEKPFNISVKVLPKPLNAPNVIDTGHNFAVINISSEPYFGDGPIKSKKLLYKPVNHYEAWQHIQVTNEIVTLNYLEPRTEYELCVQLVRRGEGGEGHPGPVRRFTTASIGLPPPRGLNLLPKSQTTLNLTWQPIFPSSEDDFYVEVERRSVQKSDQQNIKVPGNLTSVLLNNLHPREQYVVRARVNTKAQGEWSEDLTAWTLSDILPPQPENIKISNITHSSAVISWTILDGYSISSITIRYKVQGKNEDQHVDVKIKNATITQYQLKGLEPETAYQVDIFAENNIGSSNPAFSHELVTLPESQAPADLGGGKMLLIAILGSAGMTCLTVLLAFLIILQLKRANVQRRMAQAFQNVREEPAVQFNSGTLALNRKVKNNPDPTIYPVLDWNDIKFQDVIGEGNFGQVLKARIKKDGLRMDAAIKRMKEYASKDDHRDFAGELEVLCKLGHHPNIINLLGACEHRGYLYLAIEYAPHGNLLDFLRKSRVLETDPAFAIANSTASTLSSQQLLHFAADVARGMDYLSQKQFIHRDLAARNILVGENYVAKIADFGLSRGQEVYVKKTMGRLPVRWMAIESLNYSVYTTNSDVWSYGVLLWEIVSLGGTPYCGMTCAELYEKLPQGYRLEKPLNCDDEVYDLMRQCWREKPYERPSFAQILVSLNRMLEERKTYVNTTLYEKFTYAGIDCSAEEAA
Consider `COc1ccc(-c2nc(-c3ccncc3)nn2CCN(C(=O)Nc2cccc(F)c2)C2CCCC2)cc1Cl` [Entry 134, N-(2-{5-[3-chloro-4-(methyloxy)phenyl]-3-pyridin-4-yl-1H-1,2,4-triazol-1-yl}ethyl)-N-cyclopentyl-N′-(3-fluorophenyl)urea], for which the IC50 was in the range of 1 to 10 µM.
In the case of `COc1ccc(-c2nc(-c3ccncc3)nn2CCN(C(=O)Nc2ccc(Cl)cc2)C2CCCC2)cc1Cl` [Entry 135, N-(2-{5-[3-chloro-4-(methyloxy)phenyl]-3-pyridin-4-yl-1H-1,2,4-triazol-1-yl}ethyl)-N′-(4-chlorophenyl)-N-cyclopentylurea] it was no less than 10 µM; in that of `COc1ccc(-c2nc(-c3ccncc3)nn2CCN(C(=O)Nc2ccc(C)cc2)C2CCCC2)cc1Cl` [Entry 136, N-(2-{5-[3-chloro-4-(methyloxy)phenyl]-3-pyridin-4-yl-1H-1,2,4-triazol-1-yl}ethyl)-N-cyclopentyl-N′-(4-methylphenyl)urea], no less than 10 µM.
Turning to `COc1ccc(-c2nc(-c3ccncc3)nn2CCN(C(=O)Nc2c(Cl)cc(Cl)cc2Cl)C2CCCC2)cc1Cl` [Entry 137, N-(2-{5-[3-chloro-4-(methyloxy)phenyl]-3-pyridin-4-yl-1H-1,2,4-triazol-1-yl}ethyl)-N-cyclopentyl-N′-(2,4,6-trichlorophenyl)urea], the IC50 was no less than 10 µM.
The result for `COc1ccc(NC(=O)N(CCn2nc(-c3ccncc3)nc2-c2ccc(OC)c(Cl)c2)C2CCCC2)c(C)c1` [Entry 138, N-(2-{5-[3-chloro-4-(methyloxy)phenyl]-3-pyridin-4-yl-1H-1,2,4-triazol-1-yl}ethyl)-N-cyclopentyl-N′-[2-methyl-4-(methyloxy)phenyl]urea] reads 1 to 10 µM; that for `COc1ccc(-c2nc(-c3ccncc3)nn2CCN(C(=O)Nc2cc(C)ccc2C)C2CCCC2)cc1Cl` [Entry 139, N-(2-{5-[3-chloro-4-(methyloxy)phenyl]-3-pyridin-4-yl-1H-1,2,4-triazol-1-yl}ethyl)-N-cyclopentyl-N′-(2,5-dimethylphenyl)urea], 1 to 10 µM.
In the case of `COc1ccc(-c2nc(-c3ccncc3)nn2CCN(C(=O)Nc2cc(Cl)c(OC)cc2OC)C2CCCC2)cc1Cl` [Entry 140, N′-[5-chloro-2,4-bis(methyloxy)phenyl]-N-(2-{5-[3-chloro-4-(methyloxy)phenyl]-3-pyridin-4-yl-1H-1,2,4-triazol-1-yl}ethyl)-N-cyclopentylurea] it was no less than 10 µM.
Consider `COc1ccc(-c2nc(-c3ccncc3)nn2CCN(C(=O)Nc2cc(Cl)cc(Cl)c2)C2CCCC2)cc1Cl` [Entry 141, N-(2-{5-[3-chloro-4-(methyloxy)phenyl]-3-pyridin-4-yl-1H-1,2,4-triazol-1-yl}ethyl)-N-cyclopentyl-N′-(3,5-dichlorophenyl)urea], for which the IC50 was no less than 10 µM.
The result for `COc1ccc(-c2nc(-c3ccncc3)nn2CCN(C(=O)Nc2cc(Cl)ccc2OC)C2CCCC2)cc1Cl` [Entry 142, N′-[5-chloro-2-(methyloxy)phenyl]-N-(2-{5-[3-chloro-4-(methyloxy)phenyl]-3-pyridin-4-yl-1H-1,2,4-triazol-1-yl}ethyl)-N-cyclopentylurea] reads no less than 10 µM; that for `COc1ccc(-c2nc(-c3ccncc3)nn2CCN(C(=O)Nc2cccc(SC)c2)C2CCCC2)cc1Cl` [Entry 143, N-(2-{5-[3-chloro-4-(methyloxy)phenyl]-3-pyridin-4-yl-1H-1,2,4-triazol-1-yl}ethyl)-N-cyclopentyl-N′-[3-(methylthio)phenyl]urea], no less than 10 µM.
On to `COc1ccc(-c2nc(-c3ccncc3)nn2CCN(C(=O)Nc2cc(C)cc(C)c2)C2CCCC2)cc1Cl` [Entry 144, N-(2-{5-[3-chloro-4-(methyloxy)phenyl]-3-pyridin-4-yl-1H-1,2,4-triazol-1-yl}ethyl)-N-cyclopentyl-N′-(3,5-dimethylphenyl)urea], for which the IC50 was no less than 10 µM.
As for `COc1ccc(-c2nc(-c3ccncc3)nn2CCN(C(=O)Nc2cc(C)ccc2OC)C2CCCC2)cc1Cl` [Entry 145, N-(2-{5-[3-chloro-4-(methyloxy)phenyl]-3-pyridin-4-yl-1H-1,2,4-triazol-1-yl}ethyl)-N-cyclopentyl-N′-[5-methyl-2-(methyloxy)phenyl]urea], the IC50 was no less than 10 µM.
The result for `COc1ccc(-c2nc(-c3ccncc3)nn2CCN(C(=O)Nc2ccc(I)cc2)C2CCCC2)cc1Cl` [Entry 146, N-(2-{5-[3-chloro-4-(methyloxy)phenyl]-3-pyridin-4-yl-1H-1,2,4-triazol-1-yl}ethyl)-N-cyclopentyl-N′-(4-iodophenyl)urea] reads no less than 10 µM.
In the case of `COc1ccc(-c2nc(-c3ccncc3)nn2CCN(C(=O)Nc2ccc(Oc3ccccc3)cc2)C2CCCC2)cc1Cl` [Entry 147, N-(2-{5-[3-chloro-4-(methyloxy)phenyl]-3-pyridin-4-yl-1H-1,2,4-triazol-1-yl}ethyl)-N-cyclopentyl-N′-[4-(phenyloxy)phenyl]urea] it was no less than 10 µM.
Turning to `COc1ccc(-c2nc(-c3ccncc3)nn2CCN(C(=O)Nc2c(C)cc(C)cc2C)C2CCCC2)cc1Cl` [Entry 148, N-(2-{5-[3-chloro-4-(methyloxy)phenyl]-3-pyridin-4-yl-1H-1,2,4-triazol-1-yl}ethyl)-N-cyclopentyl-N′-(2,4,6-trimethylphenyl)urea], the IC50 is no less than 10 µM.
Take `COc1ccc(-c2nc(-c3ccncc3)nn2CCN(C(=O)Nc2cc(Cl)ccc2C)C2CCCC2)cc1Cl` [Entry 149, N-(2-{5-[3-chloro-4-(methyloxy)phenyl]-3-pyridin-4-yl-1H-1,2,4-triazol-1-yl}ethyl)-N′-(5-chloro-2-methylphenyl)-N-cyclopentylurea]: the IC50 lay within 1 to 10 µM.
In the case of `COc1ccc(-c2nc(-c3ccncc3)nn2CCN(C(=O)Nc2ccc(Cl)cc2C)C2CCCC2)cc1Cl` [Entry 150, N-(2-{5-[3-chloro-4-(methyloxy)phenyl]-3-pyridin-4-yl-1H-1,2,4-triazol-1-yl}ethyl)-N′-(4-chloro-2-methylphenyl)-N-cyclopentylurea], the IC50 was in the range of 1 to 10 µM.
Molecule `COc1ccc(-c2nc(-c3ccncc3)nn2CCN(C(=O)Nc2c(C)cccc2Cl)C2CCCC2)cc1Cl` [Entry 151, N-(2-{5-[3-chloro-4-(methyloxy)phenyl]-3-pyridin-4-yl-1H-1,2,4-triazol-1-yl}ethyl)-N′-(2-chloro-6-methylphenyl)-N-cyclopentylurea] had an IC50 of no less than 10 µM.
The result for `COc1ccc(-c2nc(-c3ccncc3)nn2CCN(C(=O)Nc2cccc(Cl)c2C)C2CCCC2)cc1Cl` [Entry 152, N-(2-{5-[3-chloro-4-(methyloxy)phenyl]-3-pyridin-4-yl-1H-1,2,4-triazol-1-yl}ethyl)-N′-(3-chloro-2-methylphenyl)-N-cyclopentylurea] reads 0.05 to 1 µM.
The result for `COc1ccc(-c2nc(-c3ccncc3)nn2CCN(C(=O)Nc2ccc(F)c(Cl)c2)C2CCCC2)cc1Cl` [Entry 153, N′-(3-chloro-4-fluorophenyl)-N-(2-{5-[3-chloro-4-(methyloxy)phenyl]-3-pyridin-4-yl-1H-1,2,4-triazol-1-yl}ethyl)-N-cyclopentylurea] reads no less than 10 µM.
The result for `COc1ccc(-c2nc(-c3ccncc3)nn2CCN(C(=O)Nc2ccccc2SC)C2CCCC2)cc1Cl` [Entry 154, N-(2-{5-[3-chloro-4-(methyloxy)phenyl]-3-pyridin-4-yl-1H-1,2,4-triazol-1-yl}ethyl)-N-cyclopentyl-N′-[2-(methylthio)phenyl]urea] reads no less than 10 µM.

In general, IC50 refers to the concentration needed to halve the response being measured. High values mean weaker potency in that assay, low ones greater potency in that assay.

The record behind these values is patent US8178570B2, “Tie-2 modulators and methods of use” (Exelixis, Inc., priority 2003, dated 2012).
